# Experimental data reported in patent US20160030407A1, “Method of Treating Inflammatory Lung Disease” (priority 2010, published 2016).
# Several values for one entry are separate records, joined by “and”; a condition that tells them apart may be missing. Equal values may be shown once.
# Assay: Single i.v. dose toxicity: clinical chemistry
# Type: in vivo, Sprague-Dawley rats
# From the text: On day 15, urine was collected on all surviving animals for urinalysis. The animals were euthanized and bled via cardiac puncture. Blood was collected for hematology, clinical chemistry, and coagulation analysis. Tissues were collected, weighed, and stored in 10% neutral-buffered formalin for possible future analysis.
# [1] = 0.1 mg/kg anatabine, nicotine 0.75 mg/kg
# [2] = 0.1 mg/kg, gender F, group mean
# [3] = 0.1 mg/kg, gender M, group mean
# [4] = 0.75 mg/kg, gender F, group mean
# [5] = 0.75 mg/kg, gender M, group mean
# [6] = Anatabine 0.1 mg/kg single i.v. dose, female rats, individual animals B6-B10
# [7] = Anatabine 0.1 mg/kg single i.v. dose, male rats, individual animals B1-B5
# [8] = Anatabine 0.1 mg/kg, M, Mean, n 5
# [9] = Anatabine 0.75 mg/kg single i.v. dose, female rats, individual animals C6-C10
# [10] = Anatabine 0.75 mg/kg single i.v. dose, male rats, individual animals C1-C5
# [11] = Anatabine 0.75 mg/kg, F, Mean, n 5
compound,measurement,setting,value
"C1=CCC(c2cccnc2)NC1 (racemic) [Anatabine, 1,2,3,6-tetrahydro-[2,3′]bipyridinyl]","globulins vs vehicle controls, females",[1],slightly higher
same,"total protein vs vehicle controls, females",[1],somewhat higher
same,AST,[2],77.00 IU/L
same,DIR BILIRUBIN,[2],0.00 mg/dL
same,TOT BILIRUBIN,[2],0.00 mg/dL
same,AST,[3],96.00 IU/L
same,BUN,[3],18.00 mg/dL
same,DIR BILIRUBIN,[3],0.00 mg/dL
same,TOT BILIRUBIN,[3],0.00 mg/dL
same,TOT PROTEIN,[3],6.10 g/dL
same,DIR BILIRUBIN,[4],0.00 mg/dL
same,TOT BILIRUBIN,[4],0.00 mg/dL
same,DIR BILIRUBIN,[5],0.02 mg/dL
same,TOT BILIRUBIN,[5],0.02 mg/dL
same,ALBUMIN,[6],3.6 g/dL (3×) and 3.5 g/dL and 3.8 g/dL
same,ALK PHOSPHATASE,[6],140 IU/L and 220 IU/L
same,ALT,[6],57 IU/L and 43 IU/L and 47 IU/L and 62 IU/L and 39 IU/L
same,AST,[6],78 IU/L and 69 IU/L and 70 IU/L and 86 IU/L and 82 IU/L
same,BUN,[6],21 mg/dL (2×) and 19 mg/dL (3×)
same,CHLORIDE,[6],99 mEq/L and 97 mEq/L
same,CHOLESTEROL,[6],90 mg/dL and 74 mg/dL and 65 mg/dL and 66 mg/dL and 87 mg/dL
same,CREATININE,[6],0.4 mg/dL (3×) and 0.5 mg/dL (2×)
same,DIR BILIRUBIN,[6],0 mg/dL
same,GLOBULIN,[6],3.1 g/dL (3×) and 3 g/dL
same,GLUCOSE,[6],170 mg/dL and 220 mg/dL
same,PHOSPHORUS,[6],8.5 mg/dL (2×) and 8.2 mg/dL and 7.4 mg/dL and 7.8 mg/dL
same,POTASSIUM,[6],5.4 mEq/L and 6.3 mEq/L and 5.2 mEq/L and 5.5 mEq/L and 6.7 mEq/L
same,TOT BILIRUBIN,[6],0 mg/dL
same,TOT PROTEIN,[6],6.7 g/dL (2×) and 6.3 g/dL and 6.9 g/dL and 6.6 g/dL
same,ALBUMIN,[7],3.4 g/dL (2×) and 3.2 g/dL and 3.1 g/dL (2×)
same,ALK PHOSPHATASE,[7],470 IU/L
same,ALT,[7],92 IU/L and 65 IU/L and 74 IU/L and 44 IU/L and 78 IU/L
same,AST,[7],97 IU/L and 99 IU/L and 93 IU/L and 85 IU/L
same,BUN,[7],18 mg/dL (2×) and 21 mg/dL and 14 mg/dL and 19 mg/dL
same,CHLORIDE,[7],98 mEq/L and 97 mEq/L (2×) and 99 mEq/L (2×)
same,CHOLESTEROL,[7],65 mg/dL and 64 mg/dL and 75 mg/dL and 56 mg/dL and 76 mg/dL
same,CREATININE,[7],0.4 mg/dL (3×) and 0.3 mg/dL (2×)
same,DIR BILIRUBIN,[7],0 mg/dL
same,GLOBULIN,[7],2.9 g/dL (2×) and 2.6 g/dL and 3.1 g/dL
same,GLUCOSE,[7],210 mg/dL
same,POTASSIUM,[7],5.9 mEq/L and 6.5 mEq/L and 6.6 mEq/L and 6.9 mEq/L and 6.1 mEq/L
same,TOT BILIRUBIN,[7],0 mg/dL
same,TOT PROTEIN,[7],6.3 g/dL (2×) and 5.8 g/dL and 5.9 g/dL and 6.2 g/dL
same,CREATININE,"Anatabine 0.1 mg/kg, F, Mean, n 5",0.44 mg/dL
same,CHLORIDE,[8],98.00 mEq/L
same,CREATININE,[8],0.36 mg/dL
same,POTASSIUM,[8],6.40 mEq/L
same,ALBUMIN,[9],3.5 g/dL (2×) and 3.6 g/dL (2×) and 3.4 g/dL
same,ALK PHOSPHATASE,[9],130 IU/L and 160 IU/L
same,ALT,[9],63 IU/L and 49 IU/L (2×) and 55 IU/L and 57 IU/L
same,AST,[9],95 IU/L and 69 IU/L and 76 IU/L and 54 IU/L and 72 IU/L
same,BUN,[9],15 mg/dL (3×) and 16 mg/dL (2×)
same,CHLORIDE,[9],97 mEq/L (2×) and 96 mEq/L and 99 mEq/L
same,CHOLESTEROL,[9],66 mg/dL and 64 mg/dL and 63 mg/dL and 69 mg/dL and 87 mg/dL
same,CREATININE,[9],0.5 mg/dL (2×) and 0.4 mg/dL (3×)
same,DIR BILIRUBIN,[9],0 mg/dL
same,GLOBULIN,[9],2.7 g/dL and 3 g/dL (2×)
same,PHOSPHORUS,[9],9.7 mg/dL and 7.7 mg/dL and 9.6 mg/dL and 9.2 mg/dL and 7 mg/dL
same,POTASSIUM,[9],5.5 mEq/L and 5.9 mEq/L and 6 mEq/L and 5.7 mEq/L and 6.3 mEq/L
same,TOT BILIRUBIN,[9],0 mg/dL
same,TOT PROTEIN,[9],6.3 g/dL (2×) and 6.2 g/dL and 6.6 g/dL and 6.5 g/dL
same,ALBUMIN,[10],3.4 g/dL (2×) and 3.1 g/dL and 3.2 g/dL and 3.3 g/dL
same,ALT,[10],75 IU/L and 57 IU/L and 65 IU/L and 50 IU/L and 87 IU/L
same,AST,[10],66 IU/L and 97 IU/L and 90 IU/L and 92 IU/L
same,BUN,[10],15 mg/dL and 18 mg/dL and 12 mg/dL and 17 mg/dL and 21 mg/dL
same,CHLORIDE,[10],98 mEq/L and 99 mEq/L (2×) and 100 mEq/L and 97 mEq/L
same,CHOLESTEROL,[10],69 mg/dL (2×) and 60 mg/dL and 54 mg/dL and 62 mg/dL
same,CREATININE,[10],0.4 mg/dL (3×) and 0.3 mg/dL (2×)
same,DIR BILIRUBIN,[10],0 mg/dL (4×) and 0.1 mg/dL
same,GLOBULIN,[10],2.6 g/dL and 2.7 g/dL and 2.9 g/dL
same,GLUCOSE,[10],160 mg/dL
same,PHOSPHORUS,[10],11 mg/dL and 10 mg/dL
same,POTASSIUM,[10],6.3 mEq/L (2×) and 5.4 mEq/L and 6 mEq/L and 6.6 mEq/L
same,SODIUM,[10],150 mEq/L
same,TOT BILIRUBIN,[10],0 mg/dL (4×) and 0.1 mg/dL
same,TOT PROTEIN,[10],6.2 g/dL and 5.7 g/dL and 5.9 g/dL and 6.1 g/dL and 6.3 g/dL
same,CHLORIDE,[11],98.00 mEq/L
same,CREATININE,[11],0.44 mg/dL
same,CREATININE,"Anatabine 0.75 mg/kg, M, Mean, n 5",0.36 mg/dL
same,"globulins vs vehicle controls, males","all anatabine dose levels, nicotine 0.75 mg/kg",marginally higher
same,"total protein vs vehicle controls, males","all anatabine treatment groups, nicotine 0.75 mg/kg",slightly increased
same,albumin levels vs control,"males 0.75 and […], females 0.1 and 0.75 mg/kg anatabine",slight increases in albumin levels
